Measured values as given in patent US10226062B2, “Organic compounds” (priority 2013, dated 2019).

Tests used:
Format in all cases: in vivo
[1] = tested on: taste of NaCl, MSG and Ribo solutions; test: Taste enhancement of NaCl, MSG and Ribo solutions, tasted by flavourists (Example 3); conditions: linear scale 0 to 10; for Taste intensity NaCl: solution D (0.5% NaCl + 5 ppm compound) compared with A (0.5% NaCl, = 0.0), 5-10 flavourists; for Taste intensity MSG: solution E (0.5% NaCl + 0.03% MSG + 5 ppm compound) compared with B (0.5% NaCl + 0.03% MSG, = 5.0); for Taste intensity Ribo: solution F (0.5% NaCl + 0.015% Ribo + 5 ppm compound) compared with C (0.5% NaCl + 0.015% Ribo, = 5.0)
Procedure: Six solutions were prepared: • A a solution of 0.5% NaCl • B a solution of 0.5% NaCl and 0.03% MSG (monosodium glutamate) • C a solution of 0.5% NaCl and 0.015% Ribo (disodium 5-ribonucleotides=E635) • D a solution of 0.5% NaCl and 5 ppm of a compound of formula (I) • E a solution of 0.5% NaCl and 0.03% MSG and 5 ppm a compound of formula (I) • F a solution of 0.5% NaCl and 0.015% Ribo and 5 ppm of a compound of formula (I)
The samples were tasted by a group of 5-10 flavourists aged between 30 and 60. The taste of solution D was compared with that of A to determine the enhancement effect of a compound of formula (I) on NaCl. Similarly, solution E was compared with solution B and solution F with solution C to determine the enhancement effect of a compound of formula (I) on MSG and Ribo respectively. The effect was marked on a linear scale between 0 and 10, the greater the value the greater the effect. For a reference, the taste solutions of B and C were compared with A as well.

[2] = tested on: taste of vegetarian bouillon; test: Vegetarian bouillon tasting by flavourists (Example 4); conditions: 10 ppm compound in vegetarian bouillon (32 g mix in 1 L boiling water); 4 flavourists
Procedure: A vegetarian bouillon mix was prepared from 204.71 g of sodium chloride, 147.76 g of dextrose monohydrate (ex Tapioca), 0.19 g of celery oleoresin, 0.19 g of oleoresin coriander seed, 418.64 g maltodextrin 5-8 DE, 37.65 g vegetable oil soya bean refined, 28.24 g yeast standard light, 3.76 g of onion powder, 3.76 g of garlic powder, 0.47 g of white pepper and 154.35 g of potato starch.
32 g of the well-mixed ingredients was added to 1 L of boiling water and stirred until completely dissolved.

[3] = tested on: umami and salt taste of 0.5% NaCl solution; test: Tasting of NaCl solutions by flavourists (Example 2); conditions: 0.5% NaCl + 5 ppm compound compared with 0.5% NaCl reference; scale -3 (much lower) to 3 (much higher), 0 = same as reference; average of flavourists' ratings
Procedure: An aqueous NaCl solution (0.5% by weight) was prepared (reference) to which 5 ppm of a compound of formula (I) was added.
The samples were tasted by a group of flavourists. The intensity of the umami and salt taste of the NaCl solutions comprising a compound of formula (I) (0.5% NaCl; 5 ppm of a compound of formula (I)) was compared with that of the reference (0.5% NaCl) and rated according to the following intensity scale:
Taste effect much lower than reference: −3
Taste effect lower than reference: −2
Taste effect slightly lower than reference: −1
Taste effect same as reference: 0
Taste effect slightly higher than reference: 1
Taste effect higher than reference: 2
Taste effect much higher than reference: 3

[4] = tested on: umami- and salt-taste in comestible products; test: Taste imparted in comestible products (general statement)

| Compound | Taste intensity NaCl [1] | Taste intensity MSG [1] | Taste intensity Ribo [1] | Taste of test bouillon compared with reference bouillon [2] | Taste intensity Salt (NaCl) [3] | Taste intensity Umami [3] | Taste imparted in comestible products [4] |
| --- | --- | --- | --- | --- | --- | --- | --- |
| CCNCc1ccc2c(c1)OCO2 [N-piperonyl ethylamine] | 1.3 | 6.6 | 5.6 | more umami, more salty, slightly sweeter and had a slightly more powdery volatile effect | 0.75 | 0.25 | imparted an umami- and salt-taste |
| CCCNCc1ccc2c(c1)OCO2 [N-piperonyl n-propylamine] |  |  |  |  | 1.00 | 0.00 |  |
| COc1cc(CNCCO)ccc1O.Cl [N-(2-hydroxyethyl) vanillylamine hydrochloride] |  |  |  |  | 0.33 | 0.67 |  |
| C[C@H](NCc1ccc2c(c1)OCO2)C(=O)O [N-piperonyl alanine] |  |  |  |  | 0.50 | 0.00 |  |
| CC(C)NCc1ccc2c(c1)OCO2 [N-piperonyl isopropylamine] |  |  |  |  | 0.50 | 0.00 |  |
| OCC(CO)NCc1ccc2c(c1)OCO2 [N-piperonyl 1,3-dihydroxy-2-propylamine] | 2.3 | 5.0 | 5.0 |  | 1.00 | 0.50 |  |
| CCC(CC)NCc1ccc2c(c1)OCO2 [N-piperonyl 3-pentylamine] | 1.0 | 6.3 | 5.3 | more umami, sweeter and more lingering | 0.50 | 0.00 |  |
| CCNCc1ccc(O)c(OC)c1.Cl [N-vanillyl ethylamine hydrochloride] |  |  |  |  | 0.67 | 0.67 |  |
| CCC(CO)NCc1ccc2c(c1)OCO2 (stereo not shown) [N-piperonyl 1-hydroxy-2-butylamine] | 1.0 | 5.3 | 5.0 |  | 0.67 | 0.33 |  |
| CNCc1ccc2c(c1)OCO2 [N-piperonyl methylamine] |  |  |  |  | 0.25 | 0.00 |  |
| OCCNCc1ccc2c(c1)OCO2 [N-piperonyl 2-hydroxyethylamine] |  |  |  |  | 0.75 | 0.00 |  |
